Assay results from US10124004B2, “Pyrido[3,4-d]pyrimidine derivative and pharmaceutically acceptable salt thereof” (Teijin Pharma Limited, priority 2015, dated 2018).

Experiments:
CDK4/cyclin D3 = target: T1, CDK4/cyclin D3 (Homo sapiens, UniProt P11802); assay: Human CDK4/cyclin D3 inhibitory activity (QS S Assist CDK4/Cyclin D3_FP Kit, IMAP fluorescence polarization); assay type: biochemical; conditions: Human CDK4/cyclin D3 inhibitory activity; read-out: CDK4 Activity symbol
T1 construct: purchased Carna Biosciences, Inc. QS S Assist CDK4/Cyclin D3_FP Kit
T1 sequence (P11802 whole entry): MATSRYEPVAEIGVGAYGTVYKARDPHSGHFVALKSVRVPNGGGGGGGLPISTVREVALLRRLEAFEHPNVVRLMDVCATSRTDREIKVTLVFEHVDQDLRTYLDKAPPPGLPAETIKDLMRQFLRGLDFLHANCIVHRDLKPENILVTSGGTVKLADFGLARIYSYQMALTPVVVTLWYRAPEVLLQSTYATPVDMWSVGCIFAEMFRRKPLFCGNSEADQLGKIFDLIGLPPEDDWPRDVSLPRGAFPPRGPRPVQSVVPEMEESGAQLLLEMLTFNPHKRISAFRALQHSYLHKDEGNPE
T1 sequence (P30281 whole entry partner): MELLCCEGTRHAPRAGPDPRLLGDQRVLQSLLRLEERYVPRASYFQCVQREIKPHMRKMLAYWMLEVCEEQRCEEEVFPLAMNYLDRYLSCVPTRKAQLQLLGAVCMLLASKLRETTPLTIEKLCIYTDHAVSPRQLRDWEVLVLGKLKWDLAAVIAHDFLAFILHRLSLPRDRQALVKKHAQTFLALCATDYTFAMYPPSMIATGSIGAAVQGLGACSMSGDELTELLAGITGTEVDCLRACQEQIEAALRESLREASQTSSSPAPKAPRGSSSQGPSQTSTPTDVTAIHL
Outline: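 IMAP fluorescence-polarization kinase assay with kit ATP/substrate/metal mix and 12.5 to 25 ng/well enzyme in 20 mM HEPES pH 7.4, 0.01% Tween20, 2 mM DTT. Reaction ran 45 min at room temperature, then binding reagent was added for 30 min in the dark. IC50 was taken from dose-response fits of percent inhibition.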

CDK2/cyclin A2 = target: T2, CDK2/cyclin A2 (Homo sapiens, UniProt P24941); assay: Human CDK2/cyclin A2 inhibitory activity (QS S Assist CDK2/Cyclin A2_FP Kit, IMAP fluorescence polarization); assay type: biochemical; conditions: Human CDK2/cyclin A2 inhibitory activity; read-out: CDK2 Activity symbol
T2 construct: purchased Carna Biosciences, Inc. QS S Assist CDK2/Cyclin A2_FP Kit
Procedure: Human CDK2/Cyclin A^2 Inhibitory Activity
Each compound was analyzed for CDK2/cyclin A2 inhibitory activity with an assay kit (QS S Assist CDK2/Cyclin A2_FP Kit, available from Carna Biosciences, Inc.). This assay kit determines kinase activity on the basis of the IMAP technology by Molecular Devices. Specifically, the kinase activity is determined through quantification of a variation in fluorescent polarization caused by binding of a kinase-phosphorylated fluorescent substance to an IMAP-binding reagent.
An assay buffer was prepared by 10-fold dilution of the 10× assay buffer attached to the kit with distilled water, and each solution was prepared with the assay buffer. The assay buffer contained 20 mM HEPES (pH 7.4), 0.01% Tween 20, and 2 mM dithiothreitol. A test compound solution was prepared by dilution of the test compound with dimethyl sulfoxide (DMSO) to a concentration 100 times higher than the final concentration and then 25-fold dilution with the assay buffer to a concentration four times higher than the final concentration. An ATP/substrate/Metal solution was prepared by five-fold dilution of the 5×ATP/substrate/Metal solution attached to the kit with the assay buffer. An enzyme solution was prepared by dilution of the CDK2/cyclin A2 attached to the kit with the assay buffer to a concentration twice higher than the final concentration (final concentration of CDK2/cyclin A2: 2.5 ng/well). A detection reagent was prepared by five-fold dilution of 5×IMAP-binding buffer A with distilled water and 400-fold dilution of the IMAP-binding reagent with the diluted buffer.
The test compound solution (5 μL/well) and the ATP/substrate/Metal solution (5 μL/well) were added to a 384-well plate, and the enzyme solution or the assay buffer (10 μL/well) was added to the plate (total amount of the reaction mixture: 20 μL/well) for initiation of enzymatic reaction. […] The reaction was performed at room temperature for 60 minutes, and the detection reagent (60 μL/well) was then added to the plate, followed by further reaction for 30 minutes at room temperature under light shielding conditions. Subsequently, fluorescent polarization was determined with a microplate reader at an excitation wavelength of 485 nm and an emission wavelength of 535 nm.
The percent inhibition of enzyme activity was calculated for each test compound (note: enzyme activity=100% in the case of addition of the enzyme solution and addition of DMSO instead of the test compound solution, whereas enzyme activity=0% in the case of addition of the assay buffer instead of the enzyme solution and addition of DMSO instead of the test compound solution). The percent inhibition of enzyme activity was fitted to a dose-response curve, to determine a 50% inhibitory concentration against CDK2/cyclin A2.
In each table, “+++” corresponds to IC50<10 nM, “++” 10 nM≤IC50<100 nM, and “+” 100 nM≤IC50.

| SMILES | IC50 (CDK4/cyclin D3) [nM] | IC50 (CDK2/cyclin A2) [nM] |
| --- | --- | --- |
| CO[C@H](C)c1cc2cnc(Nc3ccc(N4CCNCC4)cn3)nc2c(NC(C)C)n1 [Compound 39] | < 10 | ≥ 100 |
| CC(O)c1cc2cnc(Nc3ccc(N4CCNCC4)cn3)nc2c(NCC(F)(F)F)n1 (stereo not drawn) [Compound 40] | < 10 | ≥ 100 |
| CC(CO)Nc1nc(C(C)O)cc2cnc(Nc3ccc(N4CCNCC4)cn3)nc12 (stereo not drawn) [Compound 41] | < 10 | ≥ 100 |
| CC(C)Nc1nc(C(F)F)cc2cnc(Nc3ccc(N4CCN(C)CC4)cn3)nc12 [Compound 42] | < 10 | 10 to 100 |
| CC(C)Nc1nc(C(F)F)cc2cnc(Nc3ccc(N4CCOCC4)cn3)nc12 [Compound 43] | < 10 | 10 to 100 |
| COCc1cc2cnc(Nc3ccc(N4CCNCC4)cn3)nc2c(NC(C)C)n1 [Compound 44] | < 10 | ≥ 100 |
| CC(O)c1cc2cnc(Nc3ccc(N4CCNCC4)cn3)nc2c(NC(C)(C)CO)n1 (stereo not drawn) [Compound 45] | < 10 | ≥ 100 |
| CC(C)Nc1nc(C(F)F)cc2cnc(Nc3ccc(N4CCNCC4)cn3)nc12 [Compound 46] | < 10 | 10 to 100 |
| CC(C)Nc1nc(C(F)F)cc2cnc(Nc3ccc(CN4CCNCC4)cn3)nc12 [Compound 47] | < 10 | 10 to 100 |
| CC(O)c1cc2cnc(Nc3ccc(N4CCNCC4)cn3)nc2c(NC2CCC2)n1 (stereo not drawn) [Compound 48] | < 10 | ≥ 100 |
| CC(C)Nc1nc(C(F)F)cc2cnc(Nc3ccc(N4CCN(CCO)CC4)cn3)nc12 [Compound 49] | < 10 | 10 to 100 |
| CC(C)Nc1nc(C(F)F)cc2cnc(Nc3ccc(N4CCC(O)CC4)cn3)nc12 [Compound 50] | < 10 | 10 to 100 |
| CC(C)Nc1nc(C(F)F)cc2cnc(Nc3ccc(N4CCC(CCCO)CC4)cn3)nc12 [Compound 51] | 10 to 100 | ≥ 100 |
| CC(C)Nc1nc(C(F)F)cc2cnc(Nc3ccc(N4CCC(N)C4)cn3)nc12 (stereo not drawn) [Compound 52] | < 10 | 10 to 100 |
| CC(C)Nc1nc(C(F)F)cc2cnc(Nc3ccc(N4CCC(O)C4)cn3)nc12 (stereo not drawn) [Compound 53] | < 10 | 10 to 100 |
| CC(O)c1cc2cnc(Nc3ccc(N4CCNCC4)cn3)nc2c(NC(C)C(F)(F)F)n1 (stereo not drawn) [Compound 54] | < 10 | ≥ 100 |
| CC(C)Nc1nc(C(F)F)c(F)c2cnc(Nc3ccc(N4CCNCC4)cn3)nc12 [Compound 55] | < 10 | 10 to 100 |
| CC(=O)c1cc2cnc(Nc3ccc(N4CCNCC4)cn3)nc2c(NC2CCOCC2)n1 [Compound 56] | < 10 | ≥ 100 |
| CC(=O)c1cc2cnc(Nc3ccc(N4CCNCC4)cn3)nc2c(NC2CCCC2)n1 [Compound 57] | < 10 | ≥ 100 |
| CCNc1nc(C(C)=O)cc2cnc(Nc3ccc(N4CCNCC4)cn3)nc12 [Compound 58] | 10 to 100 | ≥ 100 |
| CC(=O)c1cc2cnc(Nc3ccc(N4CCNCC4)cn3)nc2c(NC(C)(C)C)n1 [Compound 59] | < 10 | ≥ 100 |
| Cc1c(C(F)F)nc(NC(C)C)c2nc(Nc3ccc(N4CCNCC4)cn3)ncc12 [Compound 60] | < 10 | ≥ 100 |
| CC(C)Nc1nc(C(C)O)cc2cnc(Nc3ccc(N4CCC(O)CC4)cn3)nc12 (stereo not drawn) [Compound 61] | < 10 | ≥ 100 |
| Cc1c(CO)nc(NC(C)C)c2nc(Nc3ccc(N4CCNCC4)cn3)ncc12 [Compound 62] | < 10 | ≥ 100 |
| CC(C)Nc1nc([C@H](C)O)c(F)c2cnc(Nc3ccc(N4CCNCC4)cn3)nc12 [Compound 63] | < 10 | ≥ 100 |
| CC(C)Nc1nc([C@@H](C)O)c(F)c2cnc(Nc3ccc(N4CCNCC4)cn3)nc12 [Compound 64] | < 10 | ≥ 100 |
| Cc1c([C@H](C)O)nc(NC(C)C)c2nc(Nc3ccc(N4CCNCC4)cn3)ncc12 [Compound 65] | 10 to 100 | ≥ 100 |

| SMILES | IC50 (CDK4/cyclin D3) [nM] | IC50 (CDK2/cyclin A2) [nM] |
| --- | --- | --- |
| Cc1c([C@@H](C)O)nc(NC(C)C)c2nc(Nc3ccc(N4CCNCC4)cn3)ncc12 [Compound 66] | < 10 | ≥ 100 |
| CC(C)Nc1nc(C(F)F)cc2cnc(Nc3ccc(N4CCNCC4)c(F)n3)nc12 [Compound 67] | < 10 | 10 to 100 |
| CC(=O)c1nc(NC(C)C)c2nc(Nc3ccc(N4CCNCC4)cn3)ncc2c1C [Compound 68] | < 10 | ≥ 100 |
| CC(O)c1cc2cnc(Nc3ccc(N4CCNCC4)cn3)nc2c(NCc2ccccc2)n1 (stereo not drawn) [Compound 69] | < 10 | ≥ 100 |
| CC(O)c1cc2cnc(Nc3ccc(N4CCNCC4)cn3)nc2c(NC(C)c2ccccc2)n1 (stereo not drawn) [Compound 70] | < 10 | ≥ 100 |
| CC(C)Nc1nc(C(C)O)cc2cnc(Nc3ccc(N4CCN(C)CC4)cn3)nc12 (stereo not drawn) [Compound 71] | < 10 | ≥ 100 |
| CC(C)Nc1nc(C(C)O)cc2cnc(Nc3ccc(N4CCOCC4)cn3)nc12 (stereo not drawn) [Compound 72] | < 10 | ≥ 100 |
| CC(C)Nc1nc(C(F)F)cc2cnc(Nc3ccc(N4CCNCC4)nn3)nc12 [Compound 73] | < 10 | 10 to 100 |
| CC(C)Nc1nc(C(C)O)cc2cnc(Nc3ccc(N4CCN(CCO)CC4)cn3)nc12 (stereo not drawn) [Compound 74] | < 10 | ≥ 100 |
| CC(C)Nc1nc(C(C)O)cc2cnc(Nc3ccc(N4CCC(CCCO)CC4)cn3)nc12 (stereo not drawn) [Compound 75] | < 10 | ≥ 100 |
| CC(C)Nc1nc(C(C)O)cc2cnc(Nc3ccc(N4CCC(N)C4)cn3)nc12 (stereo not drawn) [Compound 76] | < 10 | ≥ 100 |
| CC(C)Nc1nc(C(C)O)cc2cnc(Nc3ccc(N4CCC(O)C4)cn3)nc12 (stereo not drawn) [Compound 77] | < 10 | ≥ 100 |
| CC(C)Nc1nc(C(C)O)cc2cnc(Nc3ccc(C4CCNCC4)cn3)nc12 (stereo not drawn) [Compound 78] | < 10 | ≥ 100 |
| CC(C)Nc1nc(C(C)O)cc2cnc(Nc3ccc(CN4CCNCC4)cn3)nc12 (stereo not drawn) [Compound 79] | < 10 | ≥ 100 |
| CC(C)Nc1nc(C(F)F)cc2cnc(Nc3ccc(N4CCN(C)CC4=O)cn3)nc12 [Compound 80] | < 10 | 10 to 100 |
| CC(C)Nc1nc(C(F)F)cc2cnc(Nc3ccc(OCCN(C)C)cn3)nc12 [Compound 81] | < 10 | 10 to 100 |
| CC(C)Nc1nc(C(F)F)cc2cnc(Nc3ccccn3)nc12 [Compound 82] | 10 to 100 | ≥ 100 |
| CC(C)Nc1nc(C(F)F)cc2cnc(Nc3ccc(N4CCNC(=O)C4)cn3)nc12 [Compound 83] | < 10 | 10 to 100 |
| CC(C)Nc1nc(C(F)F)cc2cnc(Nc3ccc(N4CCN(C)C(=O)C4)cn3)nc12 [Compound 84] | < 10 | 10 to 100 |
| CC(C)Nc1nc(C(F)F)cc2cnc(Nc3ccc(NC(N)=O)cn3)nc12 [Compound 85] | 10 to 100 | 10 to 100 |
| CC(=O)Nc1ccc(Nc2ncc3cc(C(F)F)nc(NC(C)C)c3n2)nc1 [Compound 86] | 10 to 100 | ≥ 100 |
| CC(C)Nc1nc(C(F)F)cc2cnc(Nc3ccc(N)cn3)nc12 [Compound 87] | < 10 | < 10 |
| CC(C)Nc1nc(C(F)F)cc2cnc(Nc3ccc(NS(C)(=O)=O)cn3)nc12 [Compound 88] | ≥ 100 | ≥ 100 |
| CC(C)Nc1nc(C(F)F)cc2cnc(Nc3ccc(N4CCNCC4=O)cn3)nc12 [Compound 89] | < 10 | 10 to 100 |
| CC(C)Nc1nc(C(F)F)cc2cnc(Nc3ccc(N4CCC(C(=O)O)CC4)cn3)nc12 [Compound 90] | 10 to 100 | 10 to 100 |
| CC(=O)c1cc2cnc(Nc3ccc(N4CCNCC4)cn3)nc2c(N(C)C(C)C)n1 [Compound 91] | < 10 | ≥ 100 |
| CC(O)c1cc2cnc(Nc3ccc(N4CCNCC4)cn3)nc2c(NC2CCOC2)n1 (stereo not drawn) [Compound 92] | < 10 | ≥ 100 |
